target: T1, human dopamine reuptake transporter (Homo sapiens, UniProt Q01959); experiment: cell-based; details: Human IC50 (nM) hDAT
T1 construct: expressed in transfected cells; host or cells: CHO-K1 or HEK293
T1 sequence (Q01959 whole entry): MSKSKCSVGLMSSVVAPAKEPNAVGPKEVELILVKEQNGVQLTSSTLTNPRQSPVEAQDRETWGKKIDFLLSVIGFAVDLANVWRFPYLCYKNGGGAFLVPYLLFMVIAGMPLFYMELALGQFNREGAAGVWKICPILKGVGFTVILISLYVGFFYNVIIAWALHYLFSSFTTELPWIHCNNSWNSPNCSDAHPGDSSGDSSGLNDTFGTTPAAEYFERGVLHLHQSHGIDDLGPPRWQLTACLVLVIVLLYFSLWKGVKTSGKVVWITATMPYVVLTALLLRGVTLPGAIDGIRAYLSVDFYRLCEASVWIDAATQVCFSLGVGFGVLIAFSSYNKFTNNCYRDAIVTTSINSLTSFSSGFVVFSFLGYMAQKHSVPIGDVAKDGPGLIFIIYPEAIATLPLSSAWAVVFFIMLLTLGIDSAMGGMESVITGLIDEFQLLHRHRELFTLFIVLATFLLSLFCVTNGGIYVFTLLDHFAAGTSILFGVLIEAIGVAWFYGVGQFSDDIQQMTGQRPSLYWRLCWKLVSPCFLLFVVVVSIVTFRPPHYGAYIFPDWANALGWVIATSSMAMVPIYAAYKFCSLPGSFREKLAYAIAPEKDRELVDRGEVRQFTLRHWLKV

Structure (SMILES) | IC50
NCC1(c2ccc(Cl)c(Cl)c2)CC=CCC1 (stereo not shown) [Compound 71] | 123 nM

same assay, conditions: recombinant human dopamine transporter (DAT); read-out: Human IC50 (nM) hDAT

Structure (SMILES) | IC50
COc1ccc(C2(CN(C)C)CCCCC2O)cc1 (single isomer, unassigned) [155 E2, Cis-2-((dimethylamino)methyl)-2-(4-methoxyphenyl)cyclohexanol] | > 10000 nM
CC(N(C)C)C1(c2cccc3ccccc23)CCCCC1 (single isomer, unassigned) [60 E2, N,N-dimethyl-1-(1-(naphthalen-1-yl)cyclohexyl)ethanamine] | 6740 nM
CNC(C)C1(c2cccc3ccccc23)CCCCC1 (single isomer, unassigned) [59 E2, N-methyl-1-(1-(naphthalen-1-yl)cyclohexyl)ethanamine] | 3870 nM
CCC1(O)CCC(CNC)(c2ccc(Cl)c(Cl)c2)CC1 (stereo not shown) [Compound 279, 4-(3,4-dichlorophenyl)-1-ethyl-4-((methylamino)methyl)cyclohexanol] | 1450 nM
CN(C)CC1(c2ccc(Cl)c(Cl)c2)CCCC(F)(F)C1 (single isomer, unassigned) [206 E2, 1-(1-(3,4-dichlorophenyl)-3,3-difluorocyclohexyl)-N,N-dimethylmethanamine] | < 1 nM
CCC(NC)C1(c2ccc(Cl)c(Cl)c2)CCCCC1 (single isomer, unassigned) [62 E1, 1-(1-(3,4-dichlorophenyl)cyclohexyl)-N-methylpropan-1-amine] | 39 nM
NCC1(c2ccc(Cl)c(Cl)c2)CCC(F)CC1 (stereo not shown) [Compound 260, (1-(3,4-dichlorophenyl)-4-fluorocyclohexyl)methanamine] | 306 nM
CN(C)C[C@]1(c2ccc(Cl)c(Cl)c2)CCC[C@H](O)C1 (relative stereo) [Compound 203, cis-3-(3,4-dichlorophenyl)-3-((dimethylamino)methyl)cyclohexanol] | 1.4 nM
CNC(C)C1(c2cccc3ccccc23)CCCCC1 (single isomer, unassigned) [59 E1, N-methyl-1-(1-(naphthalen-1-yl)cyclohexyl)ethanamine] | 1750 nM
NCC1(c2ccc(F)c(Cl)c2)CCCCC1 [Compound 32, (1-(3-chloro-4-fluorophenyl)cyclohexyl)-methanamine] | 424 nM
CNCC1(c2ccc3ccccc3c2)CCC(O)CC1 (stereo not shown) [Compound 227, 4-((methylamino)methyl)-4-(naphthalen-2-yl)cyclohexanol] | 5780 nM
NCC1(c2ccc(Cl)c(Cl)c2)CCC(F)CC1 (stereo not shown) [Compound 253, (1-(3,4-dichlorophenyl)-4-fluorocyclohexyl)methanamine] | 37 nM
CNCC1(c2ccc(OC(F)(F)F)cc2)CCCCC1O (single isomer, unassigned) [146 E1, trans-2-((Methylamino)methyl)-2-(4-(trifluoromethoxy)phenyl) cyclohexanol] | > 10000 nM
COc1ccc(C2(CN(C)C)CCCCC2O)cc1 (single isomer, unassigned) [155 E1, Cis-2-((dimethylamino)methyl)-2-(4-methoxyphenyl)cyclohexanol] | > 10000 nM
CN(C)CC1(c2ccc(Cl)c(Cl)c2)CCCC(F)(F)C1 (single isomer, unassigned) [206 E1, 1-(1-(3,4-dichlorophenyl)-3,3-difluorocyclohexyl)-N,N-dimethylmethanamine] | 59 nM
CCC1(O)CCC(CNC)(c2ccc(Cl)c(Cl)c2)CC1 (stereo not shown) [Compound 282, 4-(3,4-dichlorophenyl)-1-ethyl-4-((methylamino)methyl)cyclohexanol] | 186 nM
NC[C@]1(c2ccc(Cl)c(Cl)c2)CC[C@H](O)CC1 [Compound 299, (1s,4s)-4-(aminomethyl)-4-(3,4-dichlorophenyl)cyclohexanol] | 720 nM
CCC(NC)C1(c2ccc(Cl)c(Cl)c2)CCCCC1 (single isomer, unassigned) [62 E2, 1-(1-(3,4-dichlorophenyl)cyclohexyl)-N-methylpropan-1-amine] | 4 nM
CNCC1(c2ccc3ccccc3c2)CCC(F)CC1 (stereo not shown) [Compound 232, 1-(4-fluoro-1-(naphthalen-2-yl)cyclohexyl)-N-methylmethanamine] | 25 nM
CNCC1(c2ccc3ccccc3c2)CCC(F)CC1 (stereo not shown) [Compound 236, 1-(4-fluoro-1-(naphthalen-2-yl)cyclohexyl)-N-methylmethanamine] | 444 nM
CNCC1(c2ccc(OC(F)(F)F)cc2)CCCCC1O (single isomer, unassigned) [146 E2, trans-2-((Methylamino)methyl)-2-(4-(trifluoromethoxy)phenyl) cyclohexanol] | > 10000 nM

target: human serotonin reuptake transporter (Homo sapiens, UniProt P31645); experiment: cell-based; details: Human IC50 (nM) hSERT
Sequence (P31645 whole entry): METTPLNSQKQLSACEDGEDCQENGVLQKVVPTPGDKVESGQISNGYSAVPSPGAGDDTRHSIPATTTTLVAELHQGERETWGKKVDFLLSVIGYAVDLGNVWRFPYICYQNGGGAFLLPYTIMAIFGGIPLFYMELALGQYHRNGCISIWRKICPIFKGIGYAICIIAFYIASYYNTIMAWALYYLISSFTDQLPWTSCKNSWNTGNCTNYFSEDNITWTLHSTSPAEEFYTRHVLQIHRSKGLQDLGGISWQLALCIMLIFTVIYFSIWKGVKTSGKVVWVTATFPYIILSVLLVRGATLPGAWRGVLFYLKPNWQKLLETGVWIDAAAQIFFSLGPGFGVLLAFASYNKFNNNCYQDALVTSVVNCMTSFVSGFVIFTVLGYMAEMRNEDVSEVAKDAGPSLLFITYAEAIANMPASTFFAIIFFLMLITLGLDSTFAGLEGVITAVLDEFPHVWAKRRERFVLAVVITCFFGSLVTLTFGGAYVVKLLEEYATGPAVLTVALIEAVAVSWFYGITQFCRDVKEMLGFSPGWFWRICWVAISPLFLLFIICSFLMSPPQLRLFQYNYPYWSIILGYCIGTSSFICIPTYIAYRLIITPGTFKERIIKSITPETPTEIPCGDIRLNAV

Structure (SMILES) | IC50
CC(C)CC(N)C1(c2ccc(Cl)cc2)CCCCC1 (stereo not shown) [Compound 21, 1-(1-(4-chlorophenyl)cyclohexyl)-3-methylbutan-1-amine] | 2100 nM
CC(C)CC(N)C1(c2ccc(Cl)cc2)CCCCC1 (single isomer, unassigned) [21 E1, 1-(1-(4-chlorophenyl)cyclohexyl)-3-methylbutan-1-amine] | 9660 nM
CNCC1(c2ccc(Cl)c(Cl)c2)CCCC(F)(F)C1 (single isomer, unassigned) [205 E2, 1-(1-(3,4-dichlorophenyl)-3,3-difluorocyclohexyl)-N-methylmethanamine] | 1710 nM
CNCC1(c2ccc(Cl)c(Cl)c2)CCCC(F)(F)C1 (single isomer, unassigned) [205 E1, 1-(1-(3,4-dichlorophenyl)-3,3-difluorocyclohexyl)-N-methylmethanamine] | 4210 nM
CC(C)CC(N)C1(c2ccc(Cl)cc2)CCCCC1 (single isomer, unassigned) [21 E2, 1-(1-(4-chlorophenyl)cyclohexyl)-3-methylbutan-1-amine] | 1240 nM

same assay, conditions: Human IC50 (nM) hSERT, recombinant human serotonin transporter (SERT)

Structure (SMILES) | IC50
CNCC1(c2cccc(C(F)(F)F)c2)CCCCC1 [Compound 104, N-methyl-1-(1-(3-(trifluoromethyl)phenyl)-cyclohexyl)methanamine] | 9490 nM

same assay, conditions: recombinant human serotonin transporter (SERT); read-out: Human IC50 (nM) hSERT

Structure (SMILES) | IC50
CC(N(C)C)C1(c2cccc3ccccc23)CCCCC1 (single isomer, unassigned) [60 E2, N,N-dimethyl-1-(1-(naphthalen-1-yl)cyclohexyl)ethanamine] | 4630 nM
CC1(O)CCC(CN)(c2ccc(Cl)c(Cl)c2)CC1 (stereo not shown) [Compound 275, 4-(aminomethyl)-4-(3,4-dichlorophenyl)-1-methylcyclohexanol] | 1190 nM
CNCC1(c2ccc(Cl)c(Cl)c2)CCC(F)(F)CC1 [Compound 268, 1-(1-(3,4-dichlorophenyl)-4,4-difluorocyclohexyl)-N-methylmethanamine] | 704 nM
CN(C)CC1(c2ccc(OC(F)(F)F)cc2)CCC(O)CC1 (stereo not shown) [Compound 250, 4-((dimethylamino)methyl)-4-(4-(trifluoromethoxy)phenyl)cyclohexanol] | 47 nM
CC(N)C1(c2ccc(OC(F)(F)F)cc2)CCCCC1 (single isomer, unassigned) [19 E1, 1-(1-(4-(trifluoromethoxy)phenyl)cyclohexyl)ethanamine] | 1510 nM
CC(N)C1(c2ccc(-c3ccco3)cc2)CCCCC1 (single isomer, unassigned) [22 E2, 1-(1-(4-(furan-2-yl)phenyl)cyclohexyl)ethanamine] | 101 nM
CNCC1(c2ccc(Cl)cc2)CCCCC1O (single isomer, unassigned) [136 E1, trans-2-(4-chlorophenyl)-2-((methylamino)methyl)-cyclohexanol] | > 10000 nM
CC1(O)CCC(CN)(c2ccc(Cl)c(Cl)c2)CC1 (stereo not shown) [Compound 272, 4-(aminomethyl)-4-(3,4-dichlorophenyl)-1-methylcyclohexanol] | > 10000 nM
CNCC1(c2ccc(OC)cc2)CCCCC1O (single isomer, unassigned) [140 E2, trans-2-(4-Methoxyphenyl)-2-((methylamino)methyl)cyclohexanol] | > 10000 nM
CC(N)C1(c2ccc(OC(F)(F)F)cc2)CCCCC1 (stereo not shown) [Compound 19, 1-(1-(4-(trifluoromethoxy)phenyl)cyclohexyl)ethanamine] | 107 nM
CCNCC1(c2ccc(Cl)c(Cl)c2)CCCCC1CO (single isomer, unassigned) [169 E2, (2-(3,4-dichlorophenyl)-2-((ethylamino)methyl)-cyclohexyl)methanol] | 332 nM
CC(N)C1(c2ccc(OC(F)(F)F)cc2)CCCCC1 (single isomer, unassigned) [19 E2, 1-(1-(4-(trifluoromethoxy)phenyl)cyclohexyl)ethanamine] | 398 nM
NCC1(c2ccc(Cl)c(Cl)c2)CCCC(O)C1 (single isomer, unassigned) [185 E2, Trans-3-(aminomethyl)-3-(3,4-dichlorophenyl)cyclohexanol] | > 10000 nM
CNCC1(c2ccc(Cl)cc2)CCCCC1O (single isomer, unassigned) [136 E2, trans-2-(4-chlorophenyl)-2-((methylamino)methyl)-cyclohexanol] | > 10000 nM
CCNCC1(c2ccc(Cl)c(Cl)c2)CCCCC1CO (single isomer, unassigned) [169 E1, (2-(3,4-dichlorophenyl)-2-((ethylamino)methyl)-cyclohexyl)methanol] | 1100 nM
CC(N)C1(c2ccc(-c3ccco3)cc2)CCCCC1 (single isomer, unassigned) [22 E1, 1-(1-(4-(furan-2-yl)phenyl)cyclohexyl)ethanamine] | 63 nM
CNCC1(c2ccc(OC(F)(F)F)cc2)CCC(C)(O)CC1 (stereo not shown) [Compound 247, 1-methyl-4-((methylamino)methyl)-4-(4-(trifluoromethoxy)phenyl)cyclohexanol] | 707 nM
NCC1(c2ccc(Cl)c(Cl)c2)CCCC(O)C1 (single isomer, unassigned) [184 E2, Cis-3-(aminomethyl)-3-(3,4-dichlorophenyl)cyclohexanol] | > 10000 nM
NCC1(c2ccc(Cl)c(Cl)c2)CCCC(O)C1 (single isomer, unassigned) [184 E1, Cis-3-(aminomethyl)-3-(3,4-dichlorophenyl)cyclohexanol] | > 10000 nM
CC(N)C1(c2ccc(-c3ccco3)cc2)CCCCC1 (stereo not shown) [Compound 22, 1-(1-(4-(furan-2-yl)phenyl)cyclohexyl)ethanamine] | 296 nM
NCC1(c2ccc(Cl)c(Cl)c2)CCCC(O)C1 (single isomer, unassigned) [185 E1, Trans-3-(aminomethyl)-3-(3,4-dichlorophenyl)cyclohexanol] | > 10000 nM
